Reference: PubChem BioAssay (NCI)
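Following 48 hours of exposure in 96-well plates, responses at five concentrations were used to interpolate endpoints linearly. At the TGI there is no net growth.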

Experiments:
Test in all cases: DTP human tumour cell line panel, 48 h
UO-31 renal = system: UO-31 renal
COLO 205 colon = system: COLO 205 colon
SK-MEL-28 melanoma = system: SK-MEL-28 melanoma
NCI-H23 lung = system: NCI-H23 lung
LOX IMVI melanoma = system: LOX IMVI melanoma
SF-295 CNS = system: SF-295 CNS
EKVX NSCLC = system: EKVX NSCLC
DMS 114 small cell lung = system: DMS 114 small cell lung
U251 CNS = system: U251 CNS
UACC-62 melanoma = system: UACC-62 melanoma
A498 renal = system: A498 renal
OVCAR-3 ovarian = system: OVCAR-3 ovarian
HCT-116 colon = system: HCT-116 colon
M19-MEL melanoma = system: M19-MEL melanoma
OVCAR-5 ovarian = system: OVCAR-5 ovarian
HT29 colon = system: HT29 colon
NCI-H460 lung = system: NCI-H460 lung
HOP-62 NSCLC = system: HOP-62 NSCLC
HCT-15 colon = system: HCT-15 colon
SNB-19 CNS = system: SNB-19 CNS
OVCAR-4 ovarian = system: OVCAR-4 ovarian
SK-MEL-5 melanoma = system: SK-MEL-5 melanoma
A549 NSCLC = system: A549 NSCLC
NCI-H226 lung = system: NCI-H226 lung
SF-268 CNS = system: SF-268 CNS
DMS 273 small cell lung = system: DMS 273 small cell lung
HOP-92 NSCLC = system: HOP-92 NSCLC
SR leukemia = system: SR leukemia
KM12 colon = system: KM12 colon
MOLT-4 leukemia = system: MOLT-4 leukemia
SNB-75 CNS = system: SNB-75 CNS
TK-10 renal = system: TK-10 renal
HCC-2998 colon = system: HCC-2998 colon
UACC-257 melanoma = system: UACC-257 melanoma
M14 melanoma = system: M14 melanoma
HL-60(TB) leukemia = system: HL-60(TB) leukemia
SW-620 colon = system: SW-620 colon
HOP-18 NSCLC = system: HOP-18 NSCLC
786-0 renal = system: 786-0 renal
NCI-H522 lung = system: NCI-H522 lung
LXFL 529 NSCLC = system: LXFL 529 NSCLC
IGROV1 ovarian = system: IGROV1 ovarian
RPMI-8226 leukemia = system: RPMI-8226 leukemia
SF-539 CNS = system: SF-539 CNS
K-562 leukemia = system: K-562 leukemia
SNB-78 CNS = system: SNB-78 CNS
DLD-1 colon = system: DLD-1 colon
SK-MEL-2 melanoma = system: SK-MEL-2 melanoma
OVCAR-8 ovarian = system: OVCAR-8 ovarian
SK-OV-3 ovarian = system: SK-OV-3 ovarian
MALME-3M melanoma = system: MALME-3M melanoma
CCRF-CEM leukemia = system: CCRF-CEM leukemia
KM20L2 colon = system: KM20L2 colon
CAKI-1 renal = system: CAKI-1 renal
RXF 393 renal = system: RXF 393 renal
ACHN renal = system: ACHN renal
XF 498 CNS = system: XF 498 CNS
SN12C renal = system: SN12C renal

`OCCC1(O)CCC(O)CC1` (stereo not given) showed a TGI (UO-31 renal) of over 100 µM, a TGI (COLO 205 colon) of over 100 µM and a TGI (SK-MEL-28 melanoma) of over 100 µM. The TGI (NCI-H23 lung) was over 100 µM, the TGI (LOX IMVI melanoma) was over 100 µM and the TGI (SF-295 CNS) was over 100 µM. It also gave a TGI (EKVX NSCLC) of over 100 µM, a TGI (DMS 114 small cell lung) of over 100 µM and a TGI (U251 CNS) of over 100 µM. The TGI (UACC-62 melanoma) was over 100 µM, the TGI (A498 renal) was over 100 µM and the TGI (OVCAR-3 ovarian) was over 100 µM. For the same compound, the TGI (HCT-116 colon) was over 100 µM, the TGI (M19-MEL melanoma) was over 100 µM and the TGI (OVCAR-5 ovarian) was over 100 µM. It also gave a TGI (HT29 colon) of over 100 µM, a TGI (NCI-H460 lung) of over 100 µM and a TGI (HOP-62 NSCLC) of over 100 µM. For the same compound, the TGI (HCT-15 colon) was over 100 µM, the TGI (SNB-19 CNS) was over 100 µM and the TGI (OVCAR-4 ovarian) was over 100 µM. The TGI (SK-MEL-5 melanoma) was over 100 µM, the TGI (A549 NSCLC) was over 100 µM and the TGI (NCI-H226 lung) was over 100 µM. The TGI (SF-268 CNS) was over 100 µM, the TGI (DMS 273 small cell lung) was over 100 µM and the TGI (HOP-92 NSCLC) was over 100 µM. The TGI (SR leukemia) was over 100 µM, the TGI (KM12 colon) was over 100 µM and the TGI (MOLT-4 leukemia) was over 100 µM. The TGI (SNB-75 CNS) was over 100 µM, the TGI (TK-10 renal) was over 100 µM and the TGI (HCC-2998 colon) was over 100 µM. The TGI (UACC-257 melanoma) was over 100 µM, the TGI (M14 melanoma) was over 100 µM and the TGI (HL-60(TB) leukemia) was over 100 µM. It also gave a TGI (SW-620 colon) of over 100 µM, a TGI (HOP-18 NSCLC) of over 100 µM and a TGI (786-0 renal) of over 100 µM. The TGI (NCI-H522 lung) was over 100 µM, the TGI (LXFL 529 NSCLC) was over 100 µM and the TGI (IGROV1 ovarian) was over 100 µM. For the same compound, the TGI (RPMI-8226 leukemia) was over 100 µM, the TGI (SF-539 CNS) was over 100 µM and the TGI (K-562 leukemia) was over 100 µM. It also gave a TGI (SNB-78 CNS) of over 100 µM, a TGI (DLD-1 colon) of over 100 µM and a TGI (SK-MEL-2 melanoma) of over 100 µM. The TGI (OVCAR-8 ovarian) was over 100 µM, the TGI (SK-OV-3 ovarian) was over 100 µM and the TGI (MALME-3M melanoma) was over 100 µM. The TGI (CCRF-CEM leukemia) was over 100 µM.

`CCN(CC)c1c(C(=O)/C=C/c2ccccc2)c(-c2ccccc2)nn(C)c1=O` was tested, and the TGI (UO-31 renal) was over 100 µM, the TGI (KM20L2 colon) was over 100 µM and the TGI (COLO 205 colon) was over 100 µM. For the same compound, the TGI (SK-MEL-28 melanoma) was over 100 µM, the TGI (LOX IMVI melanoma) was 35.9 µM and the TGI (SF-295 CNS) was over 100 µM. The TGI (EKVX NSCLC) was over 100 µM, the TGI (DMS 114 small cell lung) was over 100 µM and the TGI (UACC-62 melanoma) was over 100 µM. It also gave a TGI (A498 renal) of over 100 µM, a TGI (M19-MEL melanoma) of over 100 µM and a TGI (OVCAR-5 ovarian) of over 100 µM. The TGI (HT29 colon) was over 100 µM, the TGI (NCI-H460 lung) was over 100 µM and the TGI (HOP-62 NSCLC) was over 100 µM. For the same compound, the TGI (SNB-19 CNS) was over 100 µM, the TGI (CAKI-1 renal) was over 100 µM and the TGI (OVCAR-4 ovarian) was over 100 µM. It also gave a TGI (SK-MEL-5 melanoma) of over 100 µM, a TGI (A549 NSCLC) of over 100 µM and a TGI (NCI-H226 lung) of over 100 µM. For the same compound, the TGI (SF-268 CNS) was over 100 µM, the TGI (DMS 273 small cell lung) was over 100 µM and the TGI (HOP-92 NSCLC) was over 100 µM. For the same compound, the TGI (SR leukemia) was over 100 µM, the TGI (KM12 colon) was over 100 µM and the TGI (TK-10 renal) was over 100 µM. For the same compound, the TGI (UACC-257 melanoma) was over 100 µM, the TGI (HL-60(TB) leukemia) was over 100 µM and the TGI (786-0 renal) was over 100 µM. It also gave a TGI (NCI-H522 lung) of over 100 µM, a TGI (RXF 393 renal) of over 100 µM and a TGI (LXFL 529 NSCLC) of over 100 µM. The TGI (IGROV1 ovarian) was over 100 µM, the TGI (SF-539 CNS) was over 100 µM and the TGI (K-562 leukemia) was over 100 µM. The TGI (DLD-1 colon) was over 100 µM, the TGI (OVCAR-8 ovarian) was over 100 µM and the TGI (ACHN renal) was over 100 µM. The TGI (SK-OV-3 ovarian) was over 100 µM, the TGI (MALME-3M melanoma) was over 100 µM and the TGI (XF 498 CNS) was over 100 µM. The TGI (SN12C renal) was over 100 µM.
